Source: PubChem BioAssay AID2060510 (Molecular Pharmacology Branch, DTP, NCI, 2025)
One block for each molecule: values may come before it.

System: 439559-082-T-J2-PDC spheroids viability
Assay: Anticancer human tumor 439559-082-T-J2-PDC patient-derived colon adenocarcinoma cell line growth inhibition [GQUAD]
Conditions: for IC50: curve of first compound; for viability, T/C: stronger effect = lower value
Method in brief: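 Viability of tumor cells grown as complex spheroids with endothelial and stromal cells, exposed to drug combinations. Top concentration at or near clinical Cmax (else 10 microM), diluted in half-log increments.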

[1] = second compound 0.0316 µM, first compound 0.0316 µM
[2] = second compound 0.0316 µM, first compound 0.1 µM
[3] = second compound 0.0316 µM, first compound 0.316 µM
[4] = second compound 0.0316 µM, first compound 1 µM
[5] = second compound 0.0316 µM, first compound 3.16 µM
[6] = second compound 0.0316 µM, first compound 10 µM
[7] = second compound 0.1 µM, first compound 0.0316 µM
[8] = second compound 0.1 µM, first compound 0.1 µM
[9] = second compound 0.1 µM, first compound 0.316 µM
[10] = second compound 0.1 µM, first compound 1 µM
[11] = second compound 0.1 µM, first compound 3.16 µM
[12] = second compound 0.1 µM, first compound 10 µM
[13] = second compound 0.316 µM, first compound 0.0316 µM
[14] = second compound 0.316 µM, first compound 0.1 µM
[15] = second compound 0.316 µM, first compound 0.316 µM
[16] = second compound 0.316 µM, first compound 1 µM
[17] = second compound 0.316 µM, first compound 3.16 µM
[18] = second compound 0.316 µM, first compound 10 µM
[19] = second compound 1 µM, first compound 0.0316 µM
[20] = second compound 1 µM, first compound 0.1 µM
[21] = second compound 1 µM, first compound 0.316 µM
[22] = second compound 1 µM, first compound 1 µM
[23] = second compound 1 µM, first compound 3.16 µM
[24] = second compound 1 µM, first compound 10 µM
[25] = second compound 3.16 µM, first compound 0.0316 µM
[26] = second compound 3.16 µM, first compound 0.1 µM
[27] = second compound 3.16 µM, first compound 0.316 µM
[28] = second compound 3.16 µM, first compound 1 µM
[29] = second compound 3.16 µM, first compound 3.16 µM
[30] = second compound 3.16 µM, first compound 10 µM
[31] = second compound 10 µM, first compound 0.0316 µM
[32] = second compound 10 µM, first compound 0.1 µM
[33] = second compound 10 µM, first compound 0.316 µM
[34] = second compound 10 µM, first compound 1 µM
[35] = second compound 10 µM, first compound 3.16 µM
[36] = second compound 10 µM, first compound 10 µM
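Also: spheroids exposed to the agents for 7 days before readout.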
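For viability, T/C in this document: percent of luminescence signal in DMSO vehicle wells taken as 100% viability.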

IC50 (second compound 0.0316 µM): > 10 µM
IC50 (second compound 0.1 µM): > 10 µM
IC50 (second compound 0.316 µM): > 10 µM
IC50 (second compound 1 µM): > 10 µM
IC50 (second compound 3.16 µM): > 10 µM
IC50 (second compound 10 µM): > 10 µM
SMILES: COc1cc(C2c3cc4c(cc3C(OC3OC5COC(C)OC5C(O)C3O)C3COC(=O)C23)OCO4)cc(OC)c1O (stereo unspecified) + Cc1cnc(CNC(=O)c2c(=O)c3ccc(N4CCCN(C)CC4)nc3n3c2sc2ccccc23)cn1
viability, T/C [1]: 92.8%
viability, T/C [2]: 99.9%
viability, T/C [3]: 93.4%
viability, T/C [4]: 85.5%
viability, T/C [5]: 84.1%
viability, T/C [6]: 60.3%
viability, T/C [7]: 86.2%
viability, T/C [8]: 83.7%
viability, T/C [9]: 85.1%
viability, T/C [10]: 76.5%
viability, T/C [11]: 80.5%
viability, T/C [12]: 59.9%
viability, T/C [13]: 94.4%
viability, T/C [14]: 86.5%
viability, T/C [15]: 81.4%
viability, T/C [16]: 75.2%
viability, T/C [17]: 70.2%
viability, T/C [18]: 56.3%
viability, T/C [19]: 74.8%
viability, T/C [20]: 78.9%
viability, T/C [21]: 70.6%
viability, T/C [22]: 70%
viability, T/C [23]: 64.8%
viability, T/C [24]: 55.1%
viability, T/C [25]: 63.6%
viability, T/C [26]: 73.3%
viability, T/C [27]: 66%
viability, T/C [28]: 66.5%
viability, T/C [29]: 66.2%
viability, T/C [30]: 56.3%
viability, T/C [31]: 72.3%
viability, T/C [32]: 63.6%
viability, T/C [33]: 62.5%
viability, T/C [34]: 60.8%
viability, T/C [35]: 59.8%
viability, T/C [36]: 49.8%

IC50 (second compound 0.0316 µM): 4.05 µM
IC50 (second compound 0.1 µM): 5.35 µM
IC50 (second compound 0.316 µM): 7.15 µM
IC50 (second compound 1 µM): 6.8 µM
IC50 (second compound 3.16 µM): 4.51 µM
IC50 (second compound 10 µM): 3.83 µM
SMILES: COc1cccc2c1C(=O)c1c(O)c3c(c(O)c1C2=O)CC(O)(C(=O)CO)CC3OC1CC(N)C(O)C(C)O1 (stereo unspecified) + Cc1cnc(CNC(=O)c2c(=O)c3ccc(N4CCCN(C)CC4)nc3n3c2sc2ccccc23)cn1
viability, T/C [1]: 99%
viability, T/C [2]: 95.1%
viability, T/C [3]: 87.3%
viability, T/C [4]: 77.6%
viability, T/C [5]: 48.9%
viability, T/C [6]: 45.3%
viability, T/C [7]: 101%
viability, T/C [8]: 96.7%
viability, T/C [9]: 89.6%
viability, T/C [10]: 70.3%
viability, T/C [11]: 54.3%
viability, T/C [12]: 45.3%
viability, T/C [13]: 79.9%
viability, T/C [14]: 73%
viability, T/C [15]: 69.6%
viability, T/C [16]: 79.3%
viability, T/C [17]: 57.2%
viability, T/C [18]: 45.9%
viability, T/C [19]: 70%
viability, T/C [20]: 73.3%
viability, T/C [21]: 69.7%
viability, T/C [22]: 63.6%
viability, T/C [23]: 61.6%
viability, T/C [24]: 44.7%
viability, T/C [25]: 71%
viability, T/C [26]: 67.2%
viability, T/C [27]: 65%
viability, T/C [28]: 60.3%
viability, T/C [29]: 55.3%
viability, T/C [30]: 41.1%
viability, T/C [31]: 63.3%
viability, T/C [32]: 67.7%
viability, T/C [33]: 63.1%
viability, T/C [34]: 54.2%
viability, T/C [35]: 51%
viability, T/C [36]: 44.2%

IC50 (second compound 0.0316 µM): > 10 µM
IC50 (second compound 0.1 µM): > 10 µM
IC50 (second compound 0.316 µM): > 10 µM
IC50 (second compound 1 µM): > 10 µM
IC50 (second compound 3.16 µM): > 10 µM
IC50 (second compound 10 µM): > 10 µM
SMILES: Cc1cccc(N(C)C(=O)C2C(O)CCN2c2nc(C)cc(C(F)(F)F)c2C#N)c1 (stereo unspecified) + Cc1cnc(CNC(=O)c2c(=O)c3ccc(N4CCCN(C)CC4)nc3n3c2sc2ccccc23)cn1
viability, T/C [1]: 101%
viability, T/C [2]: 95.6%
viability, T/C [3]: 82.5%
viability, T/C [4]: 99%
viability, T/C [5]: 95.2%
viability, T/C [6]: 101%
viability, T/C [7]: 117%
viability, T/C [8]: 93.5%
viability, T/C [9]: 90.2%
viability, T/C [10]: 85.4%
viability, T/C [11]: 93.3%
viability, T/C [12]: 92.6%
viability, T/C [13]: 90.8%
viability, T/C [14]: 86.3%
viability, T/C [15]: 79.3%
viability, T/C [16]: 82.2%
viability, T/C [17]: 92.2%
viability, T/C [18]: 84.3%
viability, T/C [19]: 83.1%
viability, T/C [20]: 81.2%
viability, T/C [21]: 74.2%
viability, T/C [22]: 76.3%
viability, T/C [23]: 80.5%
viability, T/C [24]: 74.8%
viability, T/C [25]: 73.4%
viability, T/C [26]: 72.1%
viability, T/C [27]: 71.9%
viability, T/C [28]: 69.3%
viability, T/C [29]: 72.7%
viability, T/C [30]: 66.3%
viability, T/C [31]: 72.1%
viability, T/C [32]: 70.2%
viability, T/C [33]: 68.5%
viability, T/C [34]: 67.7%
viability, T/C [35]: 72.5%
viability, T/C [36]: 63%
